Consider 11 compounds from ChEMBL document CHEMBL1201862, “PubChem BioAssay data set” (2004).

Test systems include 786-0; ACHN; CCRF-CEM; HCT-116; HL-60; MDA-MB-231; MDA-MB-435; OVCAR-3; OVCAR-5; SF-268; SF-539; SK-MEL-28; SK-OV-3; SNB-75; T47D; TK-10; UO-31; LOX IMVI; NCI-H23; NCI-H522.
Common to all, as to assay: NCI-60 cell line screen, 48 h

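These data come from cells grown in 96-well plates and exposed to compound for 48 hours at five concentrations. GI50 marks 50% less growth.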 The source made the active and inactive calls. Rule as the data show it: active = GI50 up to about 1.1 µM and inactive = higher.

As to `CNC(=S)N/N=C(\C)c1cc(OC)c(OC)cc1O`, the GI50 in the assay with 786-0 is > 100 µM (inactive); with ACHN it was > 100 µM (inactive); in the assay with CCRF-CEM, > 100 µM (inactive); with HCT-116 it was > 100 µM (inactive); in the assay with HL-60, 0.0556 µM (active); with MDA-MB-231, > 100 µM (inactive). Further, the GI50 in the assay on MDA-MB-435, with OVCAR-3, in the assay with OVCAR-5, in the assay on SF-268, with SF-539 and in the assay with SK-MEL-28 was > 100 µM (inactive) throughout. Further, the GI50 in the assay on SK-OV-3, in the assay on SNB-75, with T47D, in the assay with TK-10 and in the assay on UO-31 was > 100 µM (inactive) each time.

Regarding `CCOC(=O)c1c(CN2CCOCC2)n(Cc2ccccc2)c2c1cc(O)c1nc(C)c(C)nc12`, the GI50 was 27.7 µM (inactive) with 786-0; 28.6 µM (inactive) in the assay on ACHN; > 100 µM (inactive) in the assay on CCRF-CEM; 38.3 µM (inactive) in the assay on HCT-116; > 100 µM (inactive) in the assay with HL-60; 46.6 µM (inactive) with LOX IMVI. For the same compound, the GI50 with MDA-MB-231 is 85.1 µM (inactive); with MDA-MB-435, > 100 µM (inactive); with NCI-H23, 35.5 µM (inactive); in the assay with OVCAR-3 it was 52.7 µM (inactive); in the assay on OVCAR-5, > 100 µM (inactive); with SF-268, 21.8 µM (inactive). In addition, the GI50 in the assay on SF-539 was 30.8 µM (inactive); in the assay with SK-MEL-28, > 100 µM (inactive); with SK-OV-3, 33.3 µM (inactive); with SNB-75, 9.98 µM (inactive); in the assay with T47D it was 20 µM (inactive); in the assay on TK-10, 30.3 µM (inactive). In the assay on UO-31, the GI50 was 36.1 µM (inactive).

`Cc1ccc(Nc2n[nH]c(=S)s2)cc1`: the GI50 in the assay with 786-0, in the assay on ACHN, with CCRF-CEM, with HCT-116, with HL-60 and in the assay on LOX IMVI was > 100 µM (inactive) in each case. In addition, the GI50 in the assay on MDA-MB-231 was > 100 µM (inactive); with MDA-MB-435 it was 42.4 µM (inactive); with NCI-H23, > 100 µM (inactive); with OVCAR-3 it was > 100 µM (inactive); in the assay on OVCAR-5, > 100 µM (inactive); in the assay on SF-268, > 100 µM (inactive). For the same compound, the GI50 with SF-539 is > 100 µM (inactive); with SK-MEL-28 it was > 100 µM (inactive); in the assay on SK-OV-3, > 100 µM (inactive); with SNB-75 it was > 100 µM (inactive); with T47D it was 96.6 µM (inactive); in the assay with TK-10 it was > 100 µM (inactive). In the assay with UO-31, the GI50 is 87.9 µM (inactive).

Turning to `O=C(O)C1CCCN1Cc1ccc2c(c1)OCO2` (stereo unspecified), the GI50 with 786-0, in the assay on ACHN, in the assay on HCT-116, in the assay with LOX IMVI, in the assay with MDA-MB-231 and with MDA-MB-435 was > 100 µM (inactive) in each case. In addition, the GI50 with NCI-H23, in the assay on NCI-H522, with OVCAR-3, with OVCAR-5, in the assay on SF-268 and in the assay with SF-539 was > 100 µM (inactive) each time. The GI50 is > 100 µM (inactive) in the assay on SK-MEL-28; > 100 µM (inactive) in the assay on SK-OV-3; 18.4 µM (inactive) in the assay on SNB-75; > 100 µM (inactive) in the assay with T47D; > 100 µM (inactive) with TK-10; > 100 µM (inactive) with UO-31.

Turning to `CC(C)CCCC(C)[C@H]1CCC2[C@@H]3CCC4Cc5nc6c(nc5C[C@]4(C)C3CC[C@@]21C)CC1CC[C@@H]2C(CC[C@@]3(C)C2CC[C@@H]3C(C)CCCC(C)C)[C@@]1(C)C6` (stereo partly specified), the GI50 with 786-0, with ACHN, with CCRF-CEM, in the assay on HCT-116, with HL-60 and in the assay on LOX IMVI was > 100 µM (inactive) throughout. Also, the GI50 in the assay with MDA-MB-231, with MDA-MB-435, in the assay with NCI-H23, in the assay on OVCAR-3, in the assay with OVCAR-5 and in the assay on SF-268 was > 100 µM (inactive) in each case. The GI50 is > 100 µM (inactive) in the assay on SF-539; > 100 µM (inactive) with SK-MEL-28; > 100 µM (inactive) in the assay with SK-OV-3; 38.8 µM (inactive) in the assay on SNB-75; > 100 µM (inactive) with T47D; > 100 µM (inactive) in the assay on TK-10. The GI50 in the assay with UO-31 is > 100 µM (inactive).

For `CCCOC(=O)C1C2CCC(O2)C1C(=O)O` (stereo unspecified), the GI50 in the assay on 786-0, with ACHN, in the assay on CCRF-CEM, in the assay on HCT-116, with HL-60 and in the assay on LOX IMVI was > 100 µM (inactive) each time. Moreover, the GI50 in the assay on MDA-MB-231, in the assay with MDA-MB-435, in the assay on NCI-H23, with NCI-H522, in the assay on OVCAR-3 and in the assay with OVCAR-5 was > 100 µM (inactive) in each case. Besides, the GI50 in the assay with SF-268 is > 100 µM (inactive); in the assay on SK-MEL-28, > 100 µM (inactive); with SK-OV-3, 61 µM (inactive); in the assay with SNB-75, 36.3 µM (inactive); with T47D, > 100 µM (inactive); in the assay on TK-10 it was > 100 µM (inactive). Further, in the assay with UO-31, the GI50 was > 100 µM (inactive).

In the case of `O=S(=O)(O)c1cc(/N=N/c2c(O)ccc3ccccc23)ccc1/C=C/c1ccc(/N=N/c2c(O)ccc3ccccc23)cc1S(=O)(=O)O`, the GI50 in the assay on 786-0 is > 100 µM (inactive); in the assay with ACHN, > 100 µM (inactive); with HCT-116, > 100 µM (inactive); with MDA-MB-231, 40.3 µM (inactive); in the assay on MDA-MB-435, > 100 µM (inactive); in the assay with NCI-H23, > 100 µM (inactive). The GI50 with NCI-H522, in the assay on OVCAR-3, with OVCAR-5, with SF-268, with SK-MEL-28 and with SK-OV-3 was > 100 µM (inactive) each time. The GI50 in the assay with SNB-75, in the assay on T47D, in the assay with TK-10 and in the assay on UO-31 was > 100 µM (inactive) in each case.

As to `CCCC/C=C1\CCC(CN2CCCCC2)C1=O` (stereo unspecified), the GI50 was 6.31 µM (inactive) with 786-0; 29.3 µM (inactive) in the assay on ACHN; 7.73 µM (inactive) in the assay with CCRF-CEM; 17.8 µM (inactive) in the assay on HCT-116; 7.6 µM (inactive) in the assay on HL-60; > 28.9 µM (inactive) in the assay with LOX IMVI. Further, the GI50 with MDA-MB-231 was > 100 µM (inactive); in the assay on MDA-MB-435 it was > 100 µM (inactive); with NCI-H23, 28.1 µM (inactive); in the assay with OVCAR-3, 29.8 µM (inactive); in the assay on OVCAR-5, 34.7 µM (inactive); in the assay on SF-268, 32.1 µM (inactive). The GI50 is 19 µM (inactive) with SF-539; 21.3 µM (inactive) in the assay on SK-MEL-28; > 42.1 µM (inactive) with SK-OV-3; > 100 µM (inactive) with SNB-75; > 100 µM (inactive) in the assay on T47D; 12.4 µM (inactive) in the assay on TK-10. In addition, the GI50 in the assay with UO-31 is 32.8 µM (inactive).

With `Oc1ccc(-c2nc(-c3ccc4ccccc4n3)c(-c3ccc(F)cc3)[nH]2)cc1`, the GI50 in the assay on 786-0 is 15.2 µM (inactive); in the assay on ACHN, 12.3 µM (inactive); in the assay on CCRF-CEM it was 15.1 µM (inactive); in the assay on HCT-116 it was 12.9 µM (inactive); in the assay with HL-60, 5.94 µM (inactive); with LOX IMVI it was 10.6 µM (inactive). The GI50 with MDA-MB-231 is 18.5 µM (inactive); in the assay on MDA-MB-435 it was 12.2 µM (inactive); in the assay on NCI-H23 it was 12.5 µM (inactive); in the assay on OVCAR-3, 6.19 µM (inactive); in the assay on OVCAR-5 it was 15.9 µM (inactive); in the assay on SF-268, 13 µM (inactive). Further, the GI50 in the assay with SK-MEL-28 is 17.4 µM (inactive); with SK-OV-3, 15.3 µM (inactive); in the assay with SNB-75 it was 21.6 µM (inactive); in the assay with T47D, 7.11 µM (inactive); with TK-10, 13.2 µM (inactive); with UO-31, 11.6 µM (inactive).

For `C[C@@]1(CO)[C@H](O)CC[C@@]2(C)[C@H]1CC[C@H]1C[C@@H]3C[C@@]12CC[C@@]3(O)COC(=O)CN`, the GI50 is 0.923 µM (active) in the assay with 786-0; 0.098 µM (active) in the assay with ACHN; 0.67 µM (active) in the assay with CCRF-CEM; 0.293 µM (active) in the assay on HL-60; 5.57 µM (inactive) in the assay with LOX IMVI; 34.8 µM (inactive) in the assay on MDA-MB-231. The GI50 in the assay with MDA-MB-435 is 11.6 µM (inactive); with NCI-H23, 2.08 µM (inactive); in the assay with OVCAR-3 it was 58.3 µM (inactive); in the assay with SF-268, 9.29 µM (inactive); with SK-MEL-28, 100 µM (inactive); in the assay on SK-OV-3, 39.4 µM (inactive). Further, the GI50 in the assay on T47D is 11.4 µM (inactive); with TK-10 it was 56.5 µM (inactive); with UO-31, 4.7 µM (inactive).

With `CN(C(=O)c1ccc(Cl)cc1)C(=S)N1CCN(c2ccccc2)CC1`, the GI50 is > 100 µM (inactive) with 786-0; > 100 µM (inactive) with ACHN; 56.6 µM (inactive) in the assay with CCRF-CEM; 35.6 µM (inactive) in the assay with HL-60; > 100 µM (inactive) in the assay on LOX IMVI; > 100 µM (inactive) in the assay on MDA-MB-231. The GI50 in the assay with MDA-MB-435 is > 100 µM (inactive); in the assay on NCI-H23, > 100 µM (inactive); in the assay on NCI-H522, 51.5 µM (inactive); in the assay on OVCAR-3, > 100 µM (inactive); with OVCAR-5, > 100 µM (inactive); in the assay on SF-268, > 100 µM (inactive). In addition, the GI50 in the assay with SK-MEL-28 is > 100 µM (inactive); in the assay with SNB-75, 46.7 µM (inactive); in the assay on T47D, > 100 µM (inactive); in the assay on TK-10, > 100 µM (inactive); with UO-31, 20.1 µM (inactive).
